± gives the standard deviation of the averaged measurements.
How the values were obtained:
Conditions in all cases: exposure time: 72 h
E21 [1] = patient-derived glioblastoma stem cells of mesenchymal subtype; assay: phenotypic distance (Euclidean, principal components) from DMSO controls (arbitrary units); higher = stronger morphological change
E31 [2] = patient-derived glioblastoma stem cells of proneural subtype; assay: as above
FT3469 [3] = normal neural stem cell line; assay: as above
E13 [4] = patient-derived glioblastoma stem cells of classical subtype; assay: as above
E34 [5] = patient-derived glioblastoma stem cells of proneural subtype; assay: as above
E57 [6] = patient-derived glioblastoma stem cells of mesenchymal subtype; assay: as above
E28 [7] = patient-derived glioblastoma stem cells of classical subtype; assay: as above
E21 [8] = assay: surviving fraction (nuclei count normalised to DMSO); higher = more cells surviving (less toxic)
E31 [9] = assay: as above
FT3469 [10] = assay: as above
E13 [11] = assay: as above
E34 [12] = assay: as above
E57 [13] = assay: as above
E28 [14] = assay: as above
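For phenotypic distance (Euclidean, principal components) from DMSO controls in this document: cell Painting imaging in 384-well plates, CellProfiler features reduced to at least 20 principal components, Euclidean distance versus same-plate DMSO vehicle wells (0.1% v/v), median over six images per well.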
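For surviving fraction (nuclei count normalised to DMSO) in this document: nuclei counted by high-content imaging of Hoechst-stained cells in laminin-coated 384-well plates, relative to 0.1% DMSO vehicle wells, with staurosporine as cell-death control.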

Cc1[nH]nc(C(F)(F)F)c1Cc1sc2c(c1C(=O)N1C[C@](C)(O)CO1)c(=O)n(C)c(=O)n2C(C)C [AZD3965]
Conditions	phenotypic distance	surviving fraction
E13 [4], 4.1 nM	2.38	–
E13 [4], 4.11523 nM	3.36	–
E13 [4], 12.3 nM	1.38	–
E13 [4], 12.34567901 nM	1.25	–
E13 [4], 37 nM	1.12	–
E13 [4], 37.037 nM	1.28	–
E13 [4], 111.1 nM	1.14	–
E13 [4], 111.1111111 nM	1.42	–
E13 [4], 333.3 nM	1.61	–
E13 [4], 333.333 nM	1.44	–
E13 [4], 1000 nM	1.42 ± 0.29	–
E13 [4], 3000 nM	1.49 ± 0.26	–
E13 [11], 4.1 nM	–	0.892
E13 [11], 4.11523 nM	–	0.874
E13 [11], 12.3 nM	–	0.878
E13 [11], 12.34567901 nM	–	0.853
E13 [11], 37 nM	–	0.902
E13 [11], 37.037 nM	–	0.888
E13 [11], 111.1 nM	–	0.875
E13 [11], 111.1111111 nM	–	0.852
E13 [11], 333.3 nM	–	0.798
E13 [11], 333.333 nM	–	0.795
E13 [11], 1000 nM	–	0.8872 ± 0.0032
E13 [11], 3000 nM	–	0.893 ± 0.14
E21 [1], 4.1 nM	0.524	–
E21 [1], 4.11523 nM	0.56	–
E21 [1], 12.3 nM	0.38	–
E21 [1], 12.34567901 nM	0.473	–
E21 [1], 37 nM	0.579	–
E21 [1], 37.037 nM	0.608	–
E21 [1], 111.1 nM	3	–
E21 [1], 111.1111111 nM	0.601	–
E21 [1], 333.3 nM	0.814	–
E21 [1], 333.333 nM	0.596	–
E21 [1], 1000 nM	0.438 ± 0.024	–
E21 [1], 3000 nM	0.509 ± 0.17	–
E21 [8], 4.1 nM	–	0.918
E21 [8], 4.11523 nM	–	0.909
E21 [8], 12.3 nM	–	0.974
E21 [8], 12.34567901 nM	–	0.942
E21 [8], 37 nM	–	1.01
E21 [8], 37.037 nM	–	0.985
E21 [8], 111.1 nM	–	0.876
E21 [8], 111.1111111 nM	–	0.994
E21 [8], 333.3 nM	–	0.97
E21 [8], 333.333 nM	–	0.874
E21 [8], 1000 nM	–	0.975 ± 0.013
E21 [8], 3000 nM	–	1.03 ± 0.048
E28 [7], 4.1 nM	1.93	–
E28 [7], 4.11523 nM	2.44	–
E28 [7], 12.3 nM	2.03	–
E28 [7], 12.34567901 nM	2.3	–
E28 [7], 37 nM	2.12	–
E28 [7], 37.037 nM	2.05	–
E28 [7], 111.1 nM	2.52	–
E28 [7], 111.1111111 nM	2.75	–
E28 [7], 333.3 nM	2.16	–
E28 [7], 333.333 nM	1.86	–
E28 [7], 1000 nM	3.17 ± 1.1	–
E28 [7], 3000 nM	2.52 ± 0.15	–
E28 [14], 4.1 nM	–	0.719
E28 [14], 4.11523 nM	–	0.606
E28 [14], 12.3 nM	–	0.623
E28 [14], 12.34567901 nM	–	0.725
E28 [14], 37 nM	–	0.66
E28 [14], 37.037 nM	–	0.664
E28 [14], 111.1 nM	–	0.585
E28 [14], 111.1111111 nM	–	0.599
E28 [14], 333.3 nM	–	0.695
E28 [14], 333.333 nM	–	0.602
E28 [14], 1000 nM	–	0.645 ± 0.073
E28 [14], 3000 nM	–	0.609 ± 0.0062
E31 [2], 4.1 nM	1.24	–
E31 [2], 4.11523 nM	1.57	–
E31 [2], 12.3 nM	1.17	–
E31 [2], 12.34567901 nM	1.51	–
E31 [2], 37 nM	1.23	–
E31 [2], 37.037 nM	1.3	–
E31 [2], 111.1 nM	1.12	–
E31 [2], 111.1111111 nM	1.4	–
E31 [2], 333.3 nM	1.58	–
E31 [2], 333.333 nM	1.36	–
E31 [2], 1000 nM	1.41 ± 0.15	–
E31 [2], 3000 nM	1.36 ± 0.5	–
E31 [9], 4.1 nM	–	1.02
E31 [9], 4.11523 nM	–	0.885
E31 [9], 12.3 nM	–	1.01
E31 [9], 12.34567901 nM	–	1.03
E31 [9], 37 nM	–	1.11
E31 [9], 37.037 nM	–	0.935
E31 [9], 111.1 nM	–	1.02
E31 [9], 111.1111111 nM	–	1.26
E31 [9], 333.3 nM	–	1.08
E31 [9], 333.333 nM	–	0.948
E31 [9], 1000 nM	–	1.06 ± 0.084
E31 [9], 3000 nM	–	0.9527 ± 0.0084
E34 [5], 4.1 nM	1.15	–
E34 [5], 4.11523 nM	1.69	–
E34 [5], 12.3 nM	1.33	–
E34 [5], 12.34567901 nM	1.5	–
E34 [5], 37 nM	1.42	–
E34 [5], 37.037 nM	1.59	–
E34 [5], 111.1 nM	1.57	–
E34 [5], 111.1111111 nM	1.79	–
E34 [5], 333.3 nM	1.47	–
E34 [5], 333.333 nM	1.47	–
E34 [5], 1000 nM	1.21 ± 0.17	–
E34 [5], 3000 nM	1.35 ± 0.28	–
E34 [12], 4.1 nM	–	0.782
E34 [12], 4.11523 nM	–	0.704
E34 [12], 12.3 nM	–	0.677
E34 [12], 12.34567901 nM	–	0.748
E34 [12], 37 nM	–	0.775
E34 [12], 37.037 nM	–	0.724
E34 [12], 111.1 nM	–	0.71
E34 [12], 111.1111111 nM	–	0.849
E34 [12], 333.3 nM	–	0.713
E34 [12], 333.333 nM	–	0.686
E34 [12], 1000 nM	–	0.7 ± 0.031
E34 [12], 3000 nM	–	0.718 ± 0.11
E57 [6], 4.1 nM	1.39	–
E57 [6], 4.11523 nM	1.81	–
E57 [6], 12.3 nM	1.46	–
E57 [6], 12.34567901 nM	1.78	–
E57 [6], 37 nM	1.94	–
E57 [6], 37.037 nM	2.19	–
E57 [6], 111.1 nM	1.74	–
E57 [6], 111.1111111 nM	1.87	–
E57 [6], 333.3 nM	1.65	–
E57 [6], 333.333 nM	1.79	–
E57 [6], 1000 nM	1.74 ± 0.13	–
E57 [6], 3000 nM	1.93 ± 0.47	–
E57 [13], 4.1 nM	–	0.905
E57 [13], 4.11523 nM	–	0.97
E57 [13], 12.3 nM	–	0.959
E57 [13], 12.34567901 nM	–	0.899
E57 [13], 37 nM	–	0.94
E57 [13], 37.037 nM	–	0.871
E57 [13], 111.1 nM	–	0.932
E57 [13], 111.1111111 nM	–	0.96
E57 [13], 333.3 nM	–	0.917
E57 [13], 333.333 nM	–	0.898
E57 [13], 1000 nM	–	0.922 ± 0.052
E57 [13], 3000 nM	–	0.917 ± 0.078
FT3469 [3], 4.1 nM	2.64	–
FT3469 [3], 4.11523 nM	1.35	–
FT3469 [3], 12.3 nM	0.859	–
FT3469 [3], 12.34567901 nM	1.19	–
FT3469 [3], 37 nM	0.806	–
FT3469 [3], 37.037 nM	1.13	–
FT3469 [3], 111.1 nM	0.75	–
FT3469 [3], 111.1111111 nM	1.11	–
FT3469 [3], 333.3 nM	1.33	–
FT3469 [3], 333.333 nM	1.16	–
FT3469 [3], 1000 nM	0.712 ± 0.19	–
FT3469 [3], 3000 nM	0.976 ± 0.23	–
FT3469 [10], 4.1 nM	–	0.911
FT3469 [10], 4.11523 nM	–	0.788
FT3469 [10], 12.3 nM	–	0.929
FT3469 [10], 12.34567901 nM	–	0.932
FT3469 [10], 37 nM	–	0.838
FT3469 [10], 37.037 nM	–	0.903
FT3469 [10], 111.1 nM	–	0.873
FT3469 [10], 111.1111111 nM	–	1.07
FT3469 [10], 333.3 nM	–	1.05
FT3469 [10], 333.333 nM	–	0.841
FT3469 [10], 1000 nM	–	0.948 ± 0.055
FT3469 [10], 3000 nM	–	0.899 ± 0.045
